Data: publication PMC7056649 (Heliyon, 2020)

Legend:
[1] = system: membrane-bound α-glucosidases on differentiated Caco-2 cells; assay: Membrane bound α-glucosidase inhibitory activity in differentiated Caco-2 cells; format: cell-based, human; details: 25 mM maltose, 0.1-100 μg/ml, 4 h; comparison in words
[2] = biological target: Saccharomyces cerevisiae α-glucosidase (Saccharomyces cerevisiae, UniProt P53341); assay: α-Glucosidase inhibitory activity and kinetic analysis; format: biochemical; details: for Ki: yeast α-glucosidase hydrolysis of PNPG; for Mode of Inhibition: PNPG substrate, determined by Lineweaver-Burk plots
[3] = biological target: T1, porcine pancreatic α-amylase (Sus scrofa, UniProt P00690); assay: α-Amylase inhibitory activity; format: biochemical; details: up to 600 μg/mL
T1 sequence (P00690 16-511): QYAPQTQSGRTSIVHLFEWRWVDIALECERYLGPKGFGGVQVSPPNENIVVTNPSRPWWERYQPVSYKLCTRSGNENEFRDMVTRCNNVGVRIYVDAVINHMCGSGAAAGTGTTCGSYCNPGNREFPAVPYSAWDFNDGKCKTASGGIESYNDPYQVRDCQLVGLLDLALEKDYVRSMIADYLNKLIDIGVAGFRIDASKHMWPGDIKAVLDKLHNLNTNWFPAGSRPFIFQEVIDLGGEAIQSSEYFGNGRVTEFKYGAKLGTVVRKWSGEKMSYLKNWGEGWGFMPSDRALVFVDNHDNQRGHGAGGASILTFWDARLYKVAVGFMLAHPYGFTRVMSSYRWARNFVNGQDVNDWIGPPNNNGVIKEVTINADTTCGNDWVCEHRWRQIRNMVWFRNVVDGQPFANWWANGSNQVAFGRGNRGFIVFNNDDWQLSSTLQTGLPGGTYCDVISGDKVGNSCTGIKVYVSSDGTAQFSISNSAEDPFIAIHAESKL

Caco-2 cells = details: ref Ahn et al., 2017, Mei et al., 2012; cited from earlier work

Saccharomyces cerevisiae α-glucosidase, sequence (P53341 whole entry): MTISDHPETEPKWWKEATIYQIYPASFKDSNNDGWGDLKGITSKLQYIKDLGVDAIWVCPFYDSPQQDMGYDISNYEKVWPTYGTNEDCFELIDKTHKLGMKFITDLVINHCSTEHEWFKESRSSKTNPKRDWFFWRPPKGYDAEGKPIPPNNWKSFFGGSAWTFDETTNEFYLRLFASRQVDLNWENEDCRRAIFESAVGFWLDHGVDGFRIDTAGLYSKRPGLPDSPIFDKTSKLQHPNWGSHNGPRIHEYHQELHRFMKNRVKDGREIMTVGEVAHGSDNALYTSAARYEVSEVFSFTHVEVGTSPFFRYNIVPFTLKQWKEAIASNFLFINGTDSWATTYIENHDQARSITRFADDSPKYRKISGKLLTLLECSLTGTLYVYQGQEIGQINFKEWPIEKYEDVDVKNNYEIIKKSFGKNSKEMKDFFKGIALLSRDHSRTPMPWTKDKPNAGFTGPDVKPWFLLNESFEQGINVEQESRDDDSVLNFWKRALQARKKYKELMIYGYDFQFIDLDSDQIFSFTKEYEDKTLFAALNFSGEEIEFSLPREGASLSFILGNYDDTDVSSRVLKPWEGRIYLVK

Structure (SMILES) | inhibition of maltose hydrolysis in differentiated Caco-2 cells [1] | IC50 ([2]; IC50, substrate PNPG) [µM] | Ki ([2]; Dixon plots, value in brackets) [µM] | Ki ([2]; determined by Dixon plots) [µM] | Mode of Inhibition [2] | Mode of Inhibition ([2]; listed as oxyresveratrol) | inhibition of α-amylase [3] | re-export rate from Caco-2 cells (Caco-2 cells)
C[C@H]1O[C@H](O[C@H]2[C@H](O)[C@@H](O)[C@@H](O[C@H]3[C@H](O)[C@@H](O)C(O)O[C@@H]3CO)O[C@@H]2CO)[C@H](O)[C@@H](O)[C@@H]1N[C@H]1C=C(CO)[C@@H](O)[C@H](O)[C@H]1O (stereo partly drawn) [Acarbose, acarbose, reference compound] | far more susceptible to acarbose |  |  |  |  |  |  | 
Oc1cc(O)cc(/C=C/c2ccc(O)cc2O)c1 [Oxyresveratrol, trans-3,5,2′,4′-tetrahydroxystilbene] | lesser potency compared to acarbose | 203 | 223 | 223 | Non-competitive | non-competitively | no detectable inhibition | high
